From patent publication US20220274965A1, “ANTIVIRAL AGENTS AND USES THEREOF” (GRIFFITH UNIVERSITY, priority 2019, published 2022)
pIC50: −log10 of the molar value. Like-named read-outs stand apart in the source and are kept apart here.

What was measured:
[1] = target: hPIV-3 strain C243 neuraminidase (UniProt P08492, species not given/STRAIN_C243); type: biochemical
hPIV-1 strain C35 [2] = assay: Haemagglutination inhibition (HI) assay with human red blood cells; type: biochemical; conditions: hPIV1 C35
hPIV-3 strain JS [3] = assay: as above; type: biochemical; conditions: hPIV3 JS
hPIV-3 strain C243 [4] = assay: In situ ELISA virus growth inhibition in LLC-MK2 cells; type: cell-based; conditions: Human respirovirus 3, LLC-MK2
hPIV-3 strain JS [5] = assay: as above; type: cell-based; conditions: Human respirovirus 3, LLC-MK2; hPIV3 JS
[6] = target: hPIV-3 strain CI002 (clinical isolate) neuraminidase (UniProt P08492, species not given/STRAIN_CI002); type: biochemical; conditions: hPIV3 CI002; read-out: NI IC50
hPIV-3 strain C243 [7] = assay: Haemagglutination inhibition (HI) assay with human red blood cells; type: biochemical; conditions: hPIV3 C243
[8] = test system: hPIV-3 strain CI002 (clinical isolate); assay: as above; type: biochemical; conditions: hPIV3 CI002
[9] = test system: hPIV-3 strain CI002 (clinical isolate); assay: In situ ELISA virus growth inhibition in LLC-MK2 cells; type: cell-based; conditions: Human respirovirus 3, LLC-MK2; hPIV3 CI002
hPIV-1 strain C35 [10] = assay: In situ ELISA virus growth inhibition; type: cell-based; conditions: hPIV1 C35
[11] = hPIV3 C243, Table 2, read-out: NI IC50
[12] = hPIV-3 strain C243, Table 1, read-out: NI (IC50)

Sequence of hPIV-3 strain CI002 (clinical isolate) neuraminidase (P08492 whole entry, change not shown): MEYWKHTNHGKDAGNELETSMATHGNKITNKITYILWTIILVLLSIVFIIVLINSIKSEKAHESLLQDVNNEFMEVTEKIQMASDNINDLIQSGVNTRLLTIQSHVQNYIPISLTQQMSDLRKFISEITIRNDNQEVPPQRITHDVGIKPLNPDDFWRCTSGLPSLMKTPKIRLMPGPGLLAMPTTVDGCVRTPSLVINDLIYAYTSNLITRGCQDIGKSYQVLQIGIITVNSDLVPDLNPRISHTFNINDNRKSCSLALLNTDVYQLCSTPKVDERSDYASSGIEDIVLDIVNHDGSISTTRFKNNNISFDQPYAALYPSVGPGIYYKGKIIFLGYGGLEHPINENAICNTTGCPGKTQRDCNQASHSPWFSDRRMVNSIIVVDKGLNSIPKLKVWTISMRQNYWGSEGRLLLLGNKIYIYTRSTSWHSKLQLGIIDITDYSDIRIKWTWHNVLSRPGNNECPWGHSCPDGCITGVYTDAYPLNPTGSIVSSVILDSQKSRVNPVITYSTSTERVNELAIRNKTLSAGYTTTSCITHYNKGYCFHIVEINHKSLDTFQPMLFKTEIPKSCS
Sequence of hPIV-3 strain C243 neuraminidase (P08492 whole entry, change not shown): as above

| Structure (SMILES) | pIC50 [1, 11] | pIC50 (hPIV-1 strain C35 [2]) | pIC50 (hPIV-3 strain JS [3]) | pIC50 [1, 12] | pIC50 [8] | also measured |
| --- | --- | --- | --- | --- | --- | --- |
| COc1c(F)c(F)cc(C(=O)Nc2ccccc2-c2cn([C@H]3C=C(C(=O)O)O[C@@H]([C@H](O)[C@H](O)CO)[C@@H]3NC(C)=O)nn2)c1F | 4.48 | < 3.70 | < 3.60 | – | – | pIC50 (hPIV-3 strain C243 [4]; hPIV3 C243, Table 2): 3.75; pIC50 (hPIV-3 strain JS [5]): 3.12 |
| CC(=O)N[C@H]1[C@H]([C@H](O)[C@H](O)CO)OC(C(=O)O)=C[C@@H]1n1cc2ccccc2n1 [IE1530-66] | – | – | – | 4.03 | – | – |
| CC(=O)N[C@H]1[C@H]([C@H](O)[C@H](O)CO)OC(C(=O)O)=C[C@@H]1n1cc(-c2ccccc2NC(=O)CCCCCN=[N+]=[N-])nn1 [IE1826-23] | – | – | – | 4.16 | – | – |
| O=C(O)C1=C[C@H](n2cc3ccccc3n2)[C@@H](NC(=O)C(F)(F)F)[C@H]([C@H](O)[C@H](O)CO)O1 [IE1530-74, Sodium 2,6-anhydro-3,4,5-trideoxy-4-(2H-indazol-2-yl)-5-(2,2,2-trifluoroacetamido)-D-glycero-D-galacto-non-2-enonate] | – | – | – | 5.03 | – | – |
| CC(=O)N[C@H]1[C@H]([C@H](O)[C@H](O)CO)OC(C(=O)O)=C[C@@H]1n1cc(-c2ccccc2NC(=O)CCCCCn2cc(C(=O)O)nn2)nn1 [IE1826-34] | – | – | – | 4.78 | – | – |
| COc1ccc(OC)c2nn([C@H]3C=C(C(=O)O)O[C@@H]([C@H](O)[C@H](O)CO)[C@@H]3NC(=O)C(F)(F)F)cc12 | 4.95 | – | – | – | – | pIC50 [6]: 4.13; pIC50 (hPIV-3 strain C243 [7]): 4.83 |
| CC(=O)N[C@H]1[C@H]([C@H](O)[C@H](O)CO)OC(C(=O)O)=C[C@@H]1n1cc(-c2ccccc2NC(=O)CNC(=O)c2ccccc2)nn1 | – | < 3.70 | 4.70 | – | < 3.70 | pIC50 (hPIV-3 strain JS [5]): 3.47 |
| O=C(O)C1=C[C@H](n2cc3ccc4ccccc4c3n2)[C@@H](NC(=O)C(F)(F)F)[C@H]([C@H](O)[C@H](O)CO)O1 [IE1530-69] | – | – | – | 5.55 | – | – |
| CC(=O)N[C@H]1[C@H]([C@H](O)[C@H](O)CO)OC(C(=O)O)=C[C@@H]1n1cc(-c2ccccc2NS(=O)(=O)c2ccc([N+](=O)[O-])cc2)nn1 | – | < 3.70 | 5.35 | – | 4.86 | pIC50 (hPIV-3 strain C243 [7]): 5.59; pIC50 [9]: 4.54 |
| O=C(O)C1=C[C@H](n2cc3cc4c(cc3n2)OCO4)[C@@H](NC(=O)C(F)(F)F)[C@H]([C@H](O)[C@H](O)CO)O1 | 4.89 | 3.88 | – | – | 4.18 | pIC50 [6]: 4.41; pIC50 (hPIV-3 strain C243 [7]): 4.83 |
| CC(=O)N[C@H]1[C@H]([C@H](O)[C@H](O)CO)OC(C(=O)O)=C[C@@H]1n1nnc2c3ccccc3ccc21 [IE1778-64] | – | – | – | 5.38 | – | – |
| CC(=O)N[C@H]1[C@H]([C@H](O)[C@H](O)CO)OC(C(=O)O)=C[C@@H]1n1cc(-c2ccccc2NS(C)(=O)=O)nn1 [drawing 111] | – | < 3.70 | 4.55 | – | 4.22 | – |
| CC(=O)N[C@H]1[C@H]([C@H](O)[C@H](O)CO)OC(C(=O)O)=C[C@@H]1n1cc(-c2ccccc2NC(=O)CNS(=O)(=O)c2cccc([N+](=O)[O-])c2)nn1 | – | < 3.70 | 4.81 | – | 4.35 | pIC50 [9]: 4.00 |
| CC(=O)N[C@H]1[C@H]([C@H](O)[C@H](O)CO)OC(C(=O)O)=C[C@@H]1n1cc(-c2ccccc2NC(=O)c2cccc(OC(F)(F)F)c2)nn1 | 4.32 | – | < 3.60 | – | < 3.70 | pIC50 (hPIV-3 strain C243 [7]): < 3.70; pIC50 (hPIV-3 strain C243 [4]; hPIV3 C243, Table 2): 3.66; pIC50 (hPIV-3 strain JS [5]): < 3.30 |
| CC(C)C(=O)N[C@H]1[C@H]([C@H](O)[C@H](O)CO)OC(C(=O)O)=C[C@@H]1n1cc2cc(C(=O)O)ccc2n1 | 3.64 | – | – | – | – | pIC50 [6]: 3.79; pIC50 (hPIV-3 strain C243 [7]): < 3.70 |
| O=C(O)C1=C[C@H](n2nnc3c4ccccc4ccc32)[C@@H](NC(=O)C(F)(F)F)[C@H]([C@H](O)[C@H](O)CO)O1 [IE1778-74] | – | – | – | 6.25 | – | pIC50 (hPIV-3 strain C243 [4]; hPIV-3 strain C243, Table 1): 5.73 |
| CC(=O)N[C@H]1[C@H]([C@H](O)[C@H](O)CO)OC(C(=O)O)=C[C@@H]1n1cc(-c2ccccc2NS(C)(=O)=O)nn1 [IE1778-12] | – | – | – | 4.54 | – | – |
| CC(=O)N[C@@H]1[C@@H]([C@@H](O)[C@@H](O)CO)OC(C(=O)O)=C[C@H]1n1cc(-c2ccccc2NC(=O)CCCCCn2cc(CCCc3cn(CCCCCC(=O)Nc4ccccc4-c4cn([C@H]5C=C(C(=O)O)O[C@@H]([C@H](O)[C@H](O)CO)[C@@H]5NC(C)=O)nn4)nn3)nn2)nn1 [IE1826-14] | – | – | – | 5.09 | – | – |
| CC(C)C(=O)N[C@H]1[C@H]([C@H](O)[C@H](O)CO)OC(C(=O)O)=C[C@@H]1n1cc2ccc(C(=O)O)cc2n1 | 3.68 | < 3.70 | < 3.70 | – | < 3.70 | pIC50 [6]: 3.42 |

| Structure (SMILES) | pIC50 [1, 11] | pIC50 (hPIV-1 strain C35 [2]) | pIC50 (hPIV-3 strain JS [3]) | pIC50 [1, 12] | pIC50 [8] | also measured |
| --- | --- | --- | --- | --- | --- | --- |
| CC(=O)N[C@@H]1[C@@H]([C@@H](O)[C@@H](O)CO)OC(C(=O)O)=C[C@H]1n1cc(-c2ccccc2NC(=O)CCCCc2cn(CCCCCC(=O)Nc3ccccc3-c3cn([C@H]4C=C(C(=O)O)O[C@@H]([C@H](O)[C@H](O)CO)[C@@H]4NC(C)=O)nn3)nn2)nn1 [IE1826-28] | – | – | – | 4.85 | – | – |
| CC(=O)N[C@H]1[C@H]([C@H](O)[C@H](O)CO)OC(C(=O)O)=C[C@@H]1n1cc(-c2ccccc2NC(=O)CCNS(=O)(=O)c2ccc([N+](=O)[O-])cc2)nn1 | – | < 3.70 | 4.41 | – | < 3.70 | pIC50 [9]: 3.54 |
| CC(=O)N[C@H]1[C@H]([C@H](O)[C@H](O)CO)OC(C(=O)O)=C[C@@H]1n1cc(-c2ccccc2NC(=O)CCCCCn2cc(CO)nn2)nn1 [IE1826-44] | – | – | – | 4.33 | – | – |
| O=C(O)C1=C[C@H](n2cc3ccc(F)cc3n2)[C@@H](NC(=O)C(F)(F)F)[C@H]([C@H](O)[C@H](O)CO)O1 | 4.89 | 3.88 | – | – | 4.65 | pIC50 [6]: 3.99 |
| O=C(O)C1=C[C@H](n2cc3c(Br)cccc3n2)[C@@H](NC(=O)C(F)(F)F)[C@H]([C@H](O)[C@H](O)CO)O1 | 5.40 | 5.31 | – | – | 5.13 | pIC50 [6]: 5.05 |
| CC(=O)N[C@H]1[C@H]([C@H](O)[C@H](O)CO)OC(C(=O)O)=C[C@@H]1n1cc(-c2ccccc2NC(=O)CCCCCn2cc(-c3ccccc3)nn2)nn1 [IE1826-30] | – | – | – | 4.61 | – | – |
| CC(=O)N[C@H]1[C@H]([C@H](O)[C@H](O)CO)OC(C(=O)O)=C[C@@H]1n1cc(-c2ccccc2NC(=O)CCNC(=O)C2CC2)nn1 | 4.52 | – | < 3.60 | – | < 3.70 | pIC50 (hPIV-3 strain C243 [7]): < 3.70; pIC50 (hPIV-3 strain C243 [4]; hPIV3 C243, Table 2): 3.98; pIC50 (hPIV-3 strain JS [5]): 3.22 |
| CC(=O)N[C@H]1[C@H]([C@H](O)[C@H](O)CO)OC(C(=O)O)=C[C@@H]1n1cc(-c2ccccc2NC(=O)CNC(=O)c2ccc(N(C)C)cc2)nn1 | – | < 3.70 | 4.85 | – | < 3.70 | pIC50 (hPIV-3 strain JS [5]): 3.45 |
| N#Cc1ccc2nn([C@H]3C=C(C(=O)O)O[C@@H]([C@H](O)[C@H](O)CO)[C@@H]3NC(=O)C(F)(F)F)cc2c1 | 4.32 | 4.18 | 3.88 | – | < 3.70 | pIC50 [6]: 3.84 |
| CC(=O)N[C@H]1[C@H]([C@H](O)[C@H](O)CO)OC(C(=O)O)=C[C@@H]1n1cc(-c2ccccc2NC(=O)CO)nn1 [IE1778-25] | – | – | – | 4.55 | – | – |
| CC(=O)N[C@H]1[C@H]([C@H](O)[C@H](O)CO)OC(C(=O)O)=C[C@@H]1n1cc(-c2ccccc2NC(=O)CNC(=O)c2ccc(-c3ccccc3)cc2)nn1 | – | < 3.70 | 5.19 | – | 4.35 | pIC50 (hPIV-3 strain C243 [4]; hPIV3 C243, Table 2): 4.62; pIC50 (hPIV-3 strain JS [5]): 4.22 |
| CC(=O)N[C@H]1[C@H]([C@H](O)[C@H](O)CO)OC(C(=O)O)=C[C@@H]1n1cc(-c2ccccc2NC(=O)CCCCCCCCCCC(=O)Nc2ccccc2-c2cn([C@H]3C=C(C(=O)O)O[C@@H]([C@H](O)[C@H](O)CO)[C@@H]3NC(C)=O)nn2)nn1 [IE1826-01] | – | – | – | 5.09 | – | pIC50 (hPIV-3 strain C243 [4]; hPIV-3 strain C243, Table 1): 4.75 |
| CC(=O)N[C@H]1[C@H]([C@H](O)[C@H](O)CO)OC(C(=O)O)=C[C@@H]1n1cc(-c2ccccc2NC(=O)CCNS(=O)(=O)Cc2ccccc2)nn1 | 4.67 | < 3.70 | < 3.70 | – | < 3.70 | pIC50 [6]: 4.27 |
| COCc1cn(CCCCCC(=O)Nc2ccccc2-c2cn([C@H]3C=C(C(=O)O)O[C@@H]([C@H](O)[C@H](O)CO)[C@@H]3NC(C)=O)nn2)nn1 [IE1826-38] | – | – | – | 4.62 | – | – |
| N#Cc1ccc2cn([C@H]3C=C(C(=O)O)O[C@@H]([C@H](O)[C@H](O)CO)[C@@H]3NC(=O)C(F)(F)F)nc2c1 | 4.30 | < 3.70 | < 3.70 | – | < 3.70 | pIC50 [6]: 3.68 |
| CC(=O)Nc1ccccc1-c1cn([C@H]2C=C(C(=O)O)O[C@@H]([C@H](O)[C@H](O)CO)[C@@H]2NC(C)=O)nn1 | – | < 3.70 | 4.40 | – | < 3.70 | pIC50 (hPIV-3 strain C243 [4]; hPIV3 C243, Table 2): 3.90; pIC50 (hPIV-3 strain JS [5]): 3.39 |
| CC(=O)N[C@H]1[C@H]([C@H](O)[C@H](O)CO)OC(C(=O)O)=C[C@@H]1n1cc(-c2ccccc2NC(=O)CNS(=O)(=O)c2ccc([N+](=O)[O-])cc2)nn1 | – | < 3.70 | 5.10 | – | 4.62 | pIC50 (hPIV-3 strain C243 [4]; hPIV3 C243, Table 2): 4.19; pIC50 (hPIV-3 strain JS [5]): 3.62; pIC50 (hPIV-1 strain C35 [10]): < 3.70 |
| CC(=O)N[C@H]1[C@H]([C@H](O)[C@H](O)CO)OC(C(=O)O)=C[C@@H]1n1cc2ccc3ccccc3c2n1 [IE1530-65] | – | – | – | 4.99 | – | – |
